Data as given in patent EP0353047B1, “Use of imidazopyrazole derivatives as analgesics and anti-inflammatory agents” (Sankyo Company Limited, priority 1988, dated 1990).
Marks after values point to notes of the source that are not given here. Each block holds one compound with its values, some of them ahead of it.

Legend:
[1] = test system: carrageenan-induced edema; experiment: Anti-inflammatory effect (carrageenan edema method); type: in vivo, rats of the Wistar strain; settings: oral, Wistar rats; for ED50: Rattus norvegicus, ID₅₀
[2] = target: T1, 5-lipoxygenase (Cavia porcellus, UniProt A0A286X958); experiment: 5-Lipoxygenase inhibitory activity (5-HITE production by polymorphonuclear leukocyte enzyme fraction); type: biochemical, male guinea pigs of the Hartley strain; settings: inhibition of production of 5-HITE from [14C]-arachidonic acid; 30°C, 30 minutes, pH 7.4; read-out: IC₅₀ (converted)
T1 construct: The supernatant was isolated as an enzyme fraction; from tissue; host or cells: Casein-elicited peritoneal polymorphonuclear leukocytes of male Hartley guinea pigs; sonicated, 10,000 G supernatant
T1 sequence (A0A286X958 1-674): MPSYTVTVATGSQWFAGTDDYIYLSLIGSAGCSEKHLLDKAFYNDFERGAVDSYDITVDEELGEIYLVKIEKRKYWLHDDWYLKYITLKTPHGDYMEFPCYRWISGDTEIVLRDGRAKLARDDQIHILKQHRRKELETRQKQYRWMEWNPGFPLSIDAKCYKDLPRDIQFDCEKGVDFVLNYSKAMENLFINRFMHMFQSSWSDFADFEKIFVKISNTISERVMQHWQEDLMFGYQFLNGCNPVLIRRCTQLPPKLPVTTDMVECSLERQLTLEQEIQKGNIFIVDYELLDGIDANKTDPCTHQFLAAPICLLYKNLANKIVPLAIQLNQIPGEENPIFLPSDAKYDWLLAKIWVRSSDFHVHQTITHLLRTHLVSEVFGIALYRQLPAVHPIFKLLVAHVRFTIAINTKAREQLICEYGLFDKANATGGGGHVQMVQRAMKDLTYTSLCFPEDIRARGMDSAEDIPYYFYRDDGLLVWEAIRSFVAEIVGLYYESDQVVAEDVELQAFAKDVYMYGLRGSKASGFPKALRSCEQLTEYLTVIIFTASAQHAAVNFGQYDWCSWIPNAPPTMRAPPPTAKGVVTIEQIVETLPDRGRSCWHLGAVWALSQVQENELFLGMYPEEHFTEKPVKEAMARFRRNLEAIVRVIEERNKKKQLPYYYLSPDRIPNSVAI
Method: The preparation of polymorphonuclear leukocytes was carried out by the method of Sbarra et al [Sbarra A.J. and Karnovsky, M. L.; J. Biol. Chem., 234, 1355 - 1362 (1959)]. Specifically, a 2% w/v aqueous casein solution was administered intraperitoneally to male guinea pigs of the Hartley strain, each weighing about 400 - 500 g. The polymorphonuclear leukocytes were harvested from the peritoneal exudate 14 - 16 hours after the administration. The preparation of enzyme was carried out by the method of Yoshimoto et al [Yoshimoto, T., Furakawa, M., Yamamoto, S., Horie, T. and Watanabe-Kohno, S.; Biochem. Biophys. Commun., 116, 612 - 618 (1983)]. The harvested polymorphonuclear leukocytes were suspended in a 50 mM phosphate buffer solution (pH = 7.4) containing 10% ethylene glycol and 1mM EDTA at a density of 1 x 10⁸ cells/ml. The suspension was subjected to ultrasound twice, each time for 30 seconds at 20 KHz, and was then centrifuged for 10 minutes at 10,000 G. The supernatant was isolated as an enzyme fraction, which was stored at -80°C. The enzyme assay was carried out by a modification of Ochi's method [Ochi, K., Yoshimoto, T., Yamamoto., S., Taniguchi, K. and Miyamoto, T.; J. Biol. Chem., 258, 5754-5758 (1983)]. Specifically, 2 mM CaCℓ₂, 1 mM glutathione, 2 mM ATP (adenosine-5′-triphosphate), 16 µM [¹⁴C]-arachidonic acid (0.16 µCi, dissolved in 5 µl ethanol), the test compound (dissolved in 4 µl DMSO) and the enzyme solution (containing 200 µg of protein) were made up to a final volume of 200 µl in a 50 mM potassium phosphate buffer solution (pH = 7.4). The test compound and the enzyme were preincubated at 30°C for 5 minutes. After the addition of the arachidonic acid, the mixture was incubated at 30°C for 30 minutes. The reaction was stopped by the addition of 50µl of 0.2N citric acid. The reaction mixture was then extracted with ethyl acetate and the extract was concentrated under a stream of nitrogen. The concentrate was subjected to thin layer chromatography and eluted with a 85 : 15 : 0.1 by volume mixture of diethyl ether, petroleum ether and acetic acid. The 5-hydroxyicosatetraenoic acid (5-HITE) fraction of the plate was identified with a radioactive scanner and the radioactivity was measured. The IC₅₀ (µg/ml) was calculated against the inhibitory rate of the production of 5-HITE of a control group, to which a test compound was not administered.

[3] = test system: male mice of the ddy strain; experiment: Acute toxicity; type: in vivo; settings: fraction of animals; dose 300 mg/kg oral in 0.5% carboxymethyl cellulose, observed for 7 days
Method: The test animals employed were male mice of the ddy strain (age: 5 weeks). […] The dose of test compound was 300 mg/kg.

[4] = test system: carrageenan-induced edema; experiment: Anti-inflammatory effect (carrageenan edema method); type: in vivo, rats of the Wistar strain; settings: Rattus norvegicus, percent inhibition of carrageenan-induced edema, oral
Method: The percent inhibition against carrageenan-induced edema in rats of the Wistar strain, using the conventional method of C.A. Winter, E.A. Risley, G.W. Nuss [J. Pharmacol., Exp. Therap., 141, 369 (1963)]. Except where otherwise noted, the dose of test compound was 50 mg/kg.

[5] = test system: rats of the Wistar strain; experiment: Analgesic effect (Randall-Selitto method); type: in vivo; settings: oral; for ED50 / responders at 50 mg/kg: Rattus norvegicus; for Analgesic effect (Randall-Selitto) / responders at 50 mg/kg: fraction of animals; for Analgesic effect (Randall-Selitto): dose 25 mg/kg (*)
Method: These tests were conducted according to the Randall-Selitto method using rats of the Wistar strain [L.O. Randall, J.J. Selitto: Arch. int. Pharmacodyn. 111, 409 (1957)]. Except where otherwise noted, the dose of test compound was 50 mg/kg.

[6] = test system: gastric acid secretions; experiment: Anti-ulcer activity: suppression of gastric acid secretions (Shay method); type: in vivo, rats; settings: gastric acid secretion
[7] = test system: inflammation induced by anti-rat IgG rabbit serum; experiment: Anti-inflammatory effect (reversed passive alusas reaction, Evans blue extraction); type: in vivo, rats of the Sprague-Dawley strain; settings: oral; for inhibition in vivo at 25 mg/kg / inhibition in vivo at 50 mg/kg: 2.5 h, percent inhibition of inflammation relative to control group; for ED50: ID₅₀, Sprague-Dawley rats
Method: The test animals were rats of the Sprague-Dawley strain, which had first been fasted for 17 hours. The hair was trimmed from their dorsal portions by means of a hair clipper, and 0.1 ml/site of anti-rat IgG rabbit serum was injected intracutaneously at the trimmed part to induce inflammation. Except in the case of the control animals, to which no anti-inflammatory drug was administered, the test drug was administered orally immediately before inflammation was induced. Except where otherwise noted, the dose of test compound was 50 mg/kg. Two hours after induction of inflammation, a 1% by volume solution of Evans blue in physiological saline was injected intravenously into the tail of each rat in an amount of 1 ml per each animal. 30 minutes after this injection, the rats were sacrificed with carbon dioxide and their skins were peeled off to extract the chromogen of the blue spots. In more detail, the skins were cut into small pieces and extracted with 5 ml of an extraction solvent at room temperature for 2 days. The supernatant obtained by centrifugation was then measured spectrophotometrically at an absorption wavelength of 605 nm. The percent inhibition of inflammation of the group of rats to which the test drug was administered was determined relative to the control group.

Compound: Cc1nn2cc[nH]c2c1-c1ccccc1 [Example 30, 6-methyl-7-phenyl-1H-imidazo[1,2-b]pyrazole]
ED50 [1]: 25 mg/kg
IC50 [2]: 2.53 µM
Toxicity (mouse) [3]: 0/3
inhibition in vivo at 25 mg/kg [4]: 50%
ED50 ([5]; ED₅₀, Wistar rats): 5.9 mg/kg
Analgesic effect (Randall-Selitto) [5]: 5/5*

Compound: CCc1c(-c2cccs2)nn2cc[nH]c12 [Example 24]
Toxicity (mouse) [3]: 0/3
inhibition in vivo at 50 mg/kg [4]: 71.9%
Analgesic effect (Randall-Selitto) [5]: 4/5*

Compound: CN/C(=N/CCSCc1nc[nH]c1C)NC#N [Cimetidine, reference compound]
Suppression rate (%) ([6]; dosage 10 mg/kg i.d.): 62%
Suppression rate (%) ([6]; dosage 30 mg/kg i.d.): 58%

Compound: c1csc(-c2cnn3cc[nH]c23)c1 [Example 32, 7-(2-thienyl)-1H-imidazo[1,2-b]pyrazole]
ED50 [1]: 23.4 mg/kg
inhibition in vivo at 25 mg/kg [7]: 82.5%
ED50 [7]: 10.9 mg/kg
Toxicity (mouse) [3]: 0/3
inhibition in vivo at 25 mg/kg [4]: 54.7%
ED50 ([5]; ED₅₀, Wistar rats): 6.9 mg/kg
Analgesic effect (Randall-Selitto) [5]: 5/5*

Compound: c1ccc(-c2cc3[nH]ccn3n2)cc1 [Example 3, 6-phenyl-1H-imidazo[1,2-b]pyrazole]
ED50 [1]: 36.6 mg/kg
inhibition in vivo at 50 mg/kg [7]: 88%
ED50 [7]: 13.9 mg/kg
Suppression rate (%) ([6]; dosage 10 mg/kg i.d.): 66%
Suppression rate (%) ([6]; dosage 30 mg/kg i.d.): 85%
Toxicity (mouse) [3]: 0/5
inhibition in vivo at 50 mg/kg [4]: 65.1%
ED50 ([5]; ED₅₀, Wistar rats): 6.1 mg/kg
responders at 50 mg/kg [5]: 100%

Compound: c1coc(-c2cc3[nH]ccn3n2)c1 [Example 22, 6-(2-Furyl)-1H-imidazo[1,2-b]pyrazole]
Toxicity (mouse) [3]: 0/3
inhibition in vivo at 50 mg/kg [4]: 76.3%
Analgesic effect (Randall-Selitto) [5]: 4/5*

Compound: FC(F)(F)c1cccc(-c2cc3[nH]ccn3n2)c1 [Example 2]
inhibition in vivo at 50 mg/kg [7]: 69.6%
Toxicity (mouse) [3]: 0/3
inhibition in vivo at 50 mg/kg [4]: 54%
responders at 50 mg/kg [5]: 60%

Compound: CCc1c(-c2ccccc2)nn2cc[nH]c12 [Example 10]
IC50 [2]: 5.21 µM
inhibition in vivo at 50 mg/kg [7]: 56.3%
Toxicity (mouse) [3]: 0/3
inhibition in vivo at 50 mg/kg [4]: 51.3%
responders at 50 mg/kg [5]: 100%

Compound: Cc1c(-c2ccccc2)nn2cc[nH]c12 [Example 4, 7-methyl-6-phenyl-1H-imidazo[1,2-b]pyrazole]
ED50 [1]: 34.1 mg/kg
inhibition in vivo at 50 mg/kg [7]: 60.5%
ED50 [7]: 26.7 mg/kg
Suppression rate (%) ([6]; dosage 10 mg/kg i.d.): 67%
Suppression rate (%) ([6]; dosage 30 mg/kg i.d.): 100%
Toxicity (mouse) [3]: 0/5
inhibition in vivo at 50 mg/kg [4]: 64.9%
ED50 ([5]; ED₅₀, Wistar rats): 2.4 mg/kg
responders at 50 mg/kg [5]: 100%

Compound: 3-methoxy-1-(4-methoxy-6-methylpyrimidin-2-yl)-5-methylpyrazole [Mepirizole, reference compound]
Anti-inflammatory Carrageenan (ID₅₀) [1]: 106 mg/kg
Analgesic Randall-Selitto (ED₅₀) ([5]; ED₅₀, Wistar rats): 63.9 mg/kg

IC50 [2]: 8.88 µM
Compound: CC(C)c1c(-c2ccccc2)nn2cc[nH]c12 [Example 11]

Compound: c1csc(-c2cc3[nH]ccn3n2)c1 [Example 20, 6-(2-Thienyl)-1H-imidazo[1,2-b]pyrazole]
ED50 [1]: 17.1 mg/kg
inhibition in vivo at 50 mg/kg [7]: 79.6%
ED50 [7]: 7 mg/kg
Suppression rate (%) ([6]; dosage 10 mg/kg i.d.): 84%
Suppression rate (%) ([6]; dosage 30 mg/kg i.d.): 93%
Toxicity (mouse) [3]: 0/3
inhibition in vivo at 50 mg/kg [4]: 89.3%
ED50 ([5]; ED₅₀, Wistar rats): 8 mg/kg
responders at 50 mg/kg [5]: 100%

Compound: Clc1ccc(-c2cc3[nH]ccn3n2)cc1 [Example 8, 6-(p-chlorophenyl)-1H-imidazo[1,2-b]pyrazole]
inhibition in vivo at 50 mg/kg [7]: 74.7%
Toxicity (mouse) [3]: 0/3
inhibition in vivo at 50 mg/kg [4]: 76.5%
responders at 50 mg/kg [5]: 100%

Compound: c1ccc(-c2cnn3cc[nH]c23)cc1 [Example 29, 7-Phenyl-1H-imidazo[1.2-b]pyrazole]
ED50 [1]: 20.1 mg/kg
inhibition in vivo at 25 mg/kg [7]: 72.2%
ED50 [7]: 14.8 mg/kg
Toxicity (mouse) [3]: 0/3
inhibition in vivo at 25 mg/kg [4]: 63.2%
ED50 ([5]; ED₅₀, Wistar rats): 5.1 mg/kg
Analgesic effect (Randall-Selitto) [5]: 5/5*

Compound: Cc1c(-c2cccs2)nn2cc[nH]c12 [Example 21, 7-Methyl-6-(2-thienyl)-1H-imidazo[1,2-b]pyrazole]
ED50 [1]: 22.3 mg/kg
inhibition in vivo at 25 mg/kg [7]: 78.1%
ED50 [7]: 7.9 mg/kg
Toxicity (mouse) [3]: 0/3
inhibition in vivo at 50 mg/kg [4]: 53.4%
ED50 ([5]; ED₅₀, Wistar rats): 10 mg/kg
responders at 50 mg/kg [5]: 100%

Compound: FC(F)(F)c1ccc(-c2cc3[nH]ccn3n2)cc1 [Example 1, 6-(4-Trifluoromethylphenyl)-1H-imidazo[1,2-b]pyrazole]
Toxicity (mouse) [3]: 0/3
inhibition in vivo at 50 mg/kg [4]: 44.2%
responders at 50 mg/kg [5]: 80%

IC50 [2]: 2.13 µM
Compound: CCCCCCCCCc1c(-c2ccccc2)nn2cc[nH]c12 [Example 41]

Compound: COc1ccc(-c2cc3[nH]ccn3n2)cc1 [Example 5]
inhibition in vivo at 50 mg/kg [7]: 67.6%
Toxicity (mouse) [3]: 0/3
inhibition in vivo at 50 mg/kg [4]: 53.7%
responders at 50 mg/kg [5]: 100%

Compound: CN(C)CCCOc1nn(Cc2ccccc2)c2ccccc12 [Benzydamine, reference compound]
ED50 [1]: 193 mg/kg
ED50 ([5]; ED₅₀, Wistar rats): > 200 mg/kg

IC50 [2]: 3.93 µM
Compound: CCCCc1c(-c2ccccc2)nn2cc[nH]c12 [Example 12]
